Data taken from patent US5948800A, “Preventive or therapeutic drug for Alzheimer's disease” (A. Nattermann & Cie. GmbH, priority 1996, dated 1999).
Entries after “also recorded” stand apart in the source; their conditions may differ.

Tests used:
PC12 cells [1] = assay: Viability of PC12 cells in the presence of Aβ (MTT method); assay type: cell-based, rat; settings: for Suppression of neuron death caused by Aβ (in words): Aβ 10 μM, compound 0.1, 1 or 2.5 μM, PC12; for viability at 0.1 µM / viability at 1 µM / viability at 2.5 µM: Rattus norvegicus, PC-12, 48 h, read-out: Viability of cells (% of control)
Procedure: PC12 cells (derived from rats, chromaffin tumor) were cultured and subcultured in a 100 mm dish (made of Corning) coated with polylysine and containing a DMEM medium supplemented with 10% FCS and 5% horse serum (product of Sigma). Briefly, PC12 cells (1×10^6 cells/dish) were seeded in a 100 mm dish coated with polylysine. In order to induce differentiation of the PC12 cells, the cells were grown for 7 days in a DMEM medium containing 5% FCS, 50 ng/ml NGF, and 1% horse serum. The PC12 cells were then peeled off through pipetting and suspended in a suitable medium to prepare a cell suspension. The cell suspension was seeded into each well of a polylysine-coated 96-well dish (1×10^4 cells/well). Subsequently, Aβ (Bachem Feinchmikalien AG) was added so that a final concentration of 10 μM was achieved. Compound A was also added so that a final concentration of 0.1, 1.0, or 2.5 μM was achieved. […] The cells were cultured for 48 hours from the addition of compound A or compound B.
An MTT reagent (3-(4,5-dimethylthiazole-2-yl)-2,5-diphenyl tetrazolium bromide) was added to the thus-treated cells, incubation was performed for 4 hours, and the cells were lysed. The subsequent procedure was performed using a so-called MTT method, which employs colorimetry based on a reduction reaction of the reagent, to thereby obtain the viability of the cells in the suspension (Behl, C. et al., Cell, 77: 817-827, 1994). [drawing 1]

LD50 in mice = settings: mouse, in vivo, oral
Source text: (§1) Toxicity of compound A has been studied by obtaining LD50 values in mice and rats.

LD50 in rats = settings: rat, in vivo
Source text: as §1

mice or rats = assay: Adverse side effects at high dose in mice or rats; assay type: in vivo
PC12 cells [2] = assay: Generation of hydrogen peroxide in PC12 cells to which SNAP was added (DCFH, FACS); assay type: cell-based, rat; settings: for Amounts of generated H2O2 (% log fluorescence of control): n = 3
Procedure: PC12 cells (derived from rats, chromaffin tumor) were cultured and subcultured in a 100 mm dish (made of Corning) coated with polylysine and containing a DMEM medium supplemented with 10% FCS and 5% horse serum (product of Sigma). Briefly, PC12 cells (1×10^6 cells/dish) were seeded in a 100 mm dish coated with polylysine. In order to induce differentiation of the PC12 cells, the cells were grown for 7 days in a DMEM medium containing 5% FCS, 50 ng/ml NGF, and 1% horse serum. The PC12 cells were then peeled off through pipetting and suspended in a suitable medium to prepare a cell suspension. The cell suspension was seeded into each well of a […], polylysine-coated 96-well dish (1×10^4 cells/well). After adhesion of the cells was confirmed, the following procedure was performed.
The thus-adhered PC12 cells were placed in a DMEM medium. To the cells were added 10 μM of SNAP and 2.5 μM of compound A. For control groups, only SNAP was added. Each sample was incubated for 3 hours. Thereafter, a solution of DCFH-DA (Molecular Probes, Inc.) in DMSO (1 mg/413 μl) which had been prepared in advance was added to each PC12-containing sample so that a final concentration of 5 μM was obtained, and the samples were then incubated for 30 minutes. The cells were removed using trypsin-EDTA, and recovered via centrifugation (1,000 rpm×5 min.). The recovered cells were suspended in 50 μl of PBS(-) while being cooled with ice. The amount of intracellular hydrogen peroxide was determined using a flow cytometer; The cell suspension was subjected to FACS (fluorescence-activated cell sorting), and the amount of the fluorescent substance, […], which had been oxidized by peroxides was measured.

[3] = system: glutathione peroxidase-like activities; settings: stated in description of control compound; cited from earlier work

Structure (SMILES)	Suppression of neuron death caused by Aβ (in words) (PC12 cells [1])	viability at 0.1 µM (PC12 cells [1]) [%]	viability at 1 µM (PC12 cells [1]) [%]	viability at 2.5 µM (PC12 cells [1]) [%]	LD50 (LD50 in mice) [mg/kg]	LD50 (LD50 in rats; ip, intraperitoneal) [mg/kg]	LD50 (LD50 in rats; oral) [mg/kg]	Adverse side effects (mice or rats)	Suppression of generation of hydrogen peroxide (in words) (PC12 cells [2]; SNAP 10 μM, compound A 2.5 μM, P≤0.0015)	Amounts of generated H2O2 (% log fluorescence of control) (PC12 cells [2]; SNAP 10 μM, compound A 2.5 μM, P ≤ 0.0015 vs SNAP)	Suppression of generation of hydrogen peroxide induced by Aβ (in words) (PC12 cells [2]; concluding statement)	Glutathione peroxidase-like activities [3]	Amounts of generated H2O2 (% log fluorescence of control) (PC12 cells [2]; SNAP 10 μM alone)	Increase of generation of hydrogen peroxide over the level without SNAP (PC12 cells [2]; SNAP 10 μM, 3 hours)
O=c1c2ccccc2[se]n1-c1ccccc1 [Compound A, 2-phenyl-1,2-benzisoselenazol-3(2H)-one]	neuron death suppressed significantly in all cases	45 ± 2.1	59 ± 14.5	66 ± 4.5	≥ 6810	580	≥ 6810	no problematic adverse side effects were observed	significantly suppressed; also recorded: satisfactorily suppressed	45.7 ± 6.03 % log fluorescence of control	significantly suppresses generation of hydrogen peroxide	–	–	–
O=c1c2ccccc2sn1-c1ccccc1 [B, 2-phenyl-1,2-benzothiazol-3(2H)-one, reference compound]	the death rate could not be suppressed	14 ± 4.5	13 ± 1	10 ± 5	–	–	–	–	–	–	–	having no glutathione peroxidase-like activities	–	–
CC(=O)NC(C(=O)O)C(C)(C)SN=O (racemic) [SNAP, Snitroso-N-acetyl-DL-penicillamine, reference compound]	–	–	–	–	–	–	–	–	–	–	–	–	135.8 ± 5.25 % log fluorescence of control	1.3-1.4 times
